Experiments:
Format in all cases: in vivo, mouse
[1] = system: mice in which atopic dermatitis had been induced; assay: Naked-eye observation of atopic dermatitis in animal model
Excerpt: To examine treatment efficacy of hirsutenone on atopic dermatitis, the present inventors utilized an experimental animal model in which atopic dermatitis was induced by attachment of mite patch to the skin. Briefly, the patch containing a mite-derived ingredient as a human atopic dermatitis-inducing agent was applied to 5-old-week mice. The hairs of their back were partially removed and mite patch was attached. At 2-week post-application, skin damage equivalent to atopic dermatitis was observed. Mite patch was detached at 18 weeks.
In addition to NC/Nga mouse, BABL/c mouse was used as an animal model.
To examine treatment efficacy of hirsutenone on atopic dermatitis, mice in which atopic dermatitis had been induced were treated with hirsutenone through an injection or skin application for 4 weeks. Then, external skin morphology was estimated by naked-eye observation so as to determine whether a symptom of atopic dermatitis was relieved. Each group injected or applied with hirsutenone was compared to a negative control group into which hirsutenone was not administered, resulting in the improvement of a symptom of atopic dermatitis. […] FIG. 5d represents a positive control treated with dexamethasone. […] FIG. 5g represents the result of administration of plancol as positive control.
FIG. 6d represents a positive control treated with dexamethasone. […] FIG. 6g represents the result of administration of plancol as positive control.

eosinophil = assay: Eosinophil count in blood; conditions: NC/Nga mice, injection or skin application for 4 weeks, after vs before administration
Procedure: Mouse blood was collected into capillary tube and 30 μl of mouse whole blood was diluted 6-fold by addition of 150 μl saline. Eosinophils were counted using a Sysmex XE-2100 hematology analyzer. Slide glass smeared with peripheral blood was prepared and stained with Wright-Giemsa. Eosinophil count was carried out by differentially counting 200 leukocytes.
NC/Nga mice in which atopic dermatitis had been induced were treated with hirsutenone through an injection or skin application for 4 weeks. Blood was collected from mice before and after administration or application of hirsutenone, and then eosinophil count was measured.

IgE = assay: Measurement of IgE level by ELISA; conditions: NC/Nga mice, injection or skin application for 4 weeks, vs negative control
Procedure: (§1) Serum was prepared from blood of main artery. Lymphocytes extracted from spleen were cultured. Briefly, extracted spleen was homogenized, filtered through mesh and single cells was isolated. Red blood cells were lysed in RBC lysis buffer and the supernatant was removed by centrifugation. 1×10^6 cells were cultured in 24-well plate containing RPMI media (1 ml). The experiments were performed in media containing cells cultured for 3 days.
NC/Nga mice in which atopic dermatitis had been induced were treated with hirsutenone through an injection or skin application for 4 weeks. Blood was collected from mice and IgE expression level was measured using ELISA.

IL-4 = assay: Measurement of IL-4 expression level by ELISA; conditions: NC/Nga mice, injection or skin application for 4 weeks, serum and splenocyte, vs negative control
Procedure: as §1
(§2) NC/Nga mice in which atopic dermatitis had been induced were treated with hirsutenone through an injection or skin application for 4 weeks. Blood and spleen were collected from mice and interleukin (IL)-4, IL-5, IL-10 and IL-13 expression level in serum and splenocyte were measured using ELISA. IL-4, IL-5 and IL-13 expression detected in groups of hirsutenone being injected or skin applied was much lower than those of negative control (FIG. 9a, FIG. 9b and FIG. 9c).

IL-5 = assay: Measurement of IL-5 expression level by ELISA; conditions: NC/Nga mice, injection or skin application for 4 weeks, serum and splenocyte, vs negative control
Procedure: as §1, §2

IL-13 = assay: Measurement of IL-13 expression level by ELISA; conditions: NC/Nga mice, injection or skin application for 4 weeks, serum and splenocyte, vs negative control
Procedure: as §1, §2

COX-2 [2] = assay: Measurement of COX-2 expression using real-time PCR; conditions: NC/Nga mice, injection or skin application for 4 weeks, epidermal cells
Procedure: (§3) The primers used in Real-time PCR are as follows.
(§4) Total RNA was extracted according to the following steps. Tissue was treated with 1 ml TRIZol reagent and mixed with 200 μl chloroform. After centrifugation at 12,000 rpm for 15 min at 4° C., the supernatant was transferred into a new tube and mixed with ½ vol. of isopropanol. The mixture was again centrifuged at 12,000 rpm for 15 min at 4° C. The supernatant was discarded and total RNA was dissolved in DEPC-water.
(§5) cDNA was prepared according to the following steps. The isolated total RNA was dissolved in 30 μl DEPC-DW and reverse transcription using 3 μg of total RNA as a template was performed in a reaction mixture (20 μl) containing 1 μl of reverse transcriptase, 2 μl of 10× buffer, 2 μl of 10 mM dNTP (dNTP mix), 1 μl of oligo dT primer, 0.5 μl of RNase inhibitor and 4 μl of 25 mM MgCl2.
(§6) Each 2 μl of cDNA prepared was amplified using PCR. PCR reaction was performed by 45 cycles of 1 min at 59° C. and 1 min at 94° C. Finally, the mixtures were incubated at 72° C. for 1 min for extension.
(§7) NC/Nga mice in which atopic dermatitis had been induced were treated with hirsutenone through an injection or skin application for 4 weeks and then mice epidermal cells were collected. To investigate whether hirsutenone has a regulatory activity on immune responses, the expression levels of COX-2 and iNOS were detected using real-time PCR. […]

iNOS [3] = assay: Measurement of iNOS expression using real-time PCR; conditions: NC/Nga mice, injection or skin application for 4 weeks, epidermal cells
Procedure: as §3, §4, §5, §6, §7

COX-2 [4] = assay: Measurement of COX-2 expression level using western blotting; conditions: NC/Nga mice, injection or skin application for 4 weeks, epidermal cells
Procedure: (§8) Skin tissue containing epidermal cells was lysed and centrifuged using a centrifuge. The supernatant was electrophoresized on 15% SDS-PAGE (sodium dodecyl sulfate polyacrylamide gel electrophoresis). For analysis of COX-2 and iNOS, proteins separated on gel electrophoresis were transferred into a nitrocellulose membrane and sequentially incubated with a primary antibody (1:1000 in BSA, rabbit polyclonal anti-COX-2 antibody, rabbit polyclonal iNOS antibody; Chemicon, Calif., USA) and a secondary antibody (1:2000 in BSA, anti-goat IgG, anti-rabbit IgG; Chemicon, Calif., USA).
(§9) NC/Nga mice in which atopic dermatitis had been induced were treated with hirsutenone through an injection or skin application for 4 weeks and mice epidermal cells were collected. To investigate whether hirsutenone has a regulatory activity on immune responses, the expression levels of COX-2 and iNOS were detected using western blotting.

iNOS [5] = assay: Measurement of iNOS expression level using western blotting; conditions: NC/Nga mice, injection or skin application for 4 weeks, epidermal cells
Procedure: as §8, §9

O=C(/C=C/CCc1ccc(O)c(O)c1)CCc1ccc(O)c(O)c1 [hirsutenone]
symptom of atopic dermatitis (naked-eye observation) ([1]; BABL/c mice, 0.1% hirsutenone by injection, vs PBS negative control): much more relieved | symptom of atopic dermatitis (naked-eye observation) ([1]; BABL/c mice, 1% hirsutenone by injection, vs PBS negative control): much more relieved | symptom of atopic dermatitis (naked-eye observation) ([1]; BABL/c mice, 1% hirsutenone ointment applied to skin, vs composition without active ingredient): much more alleviated | symptom of atopic dermatitis (naked-eye observation) ([1]; NC/Nga mice, 0.1% hirsutenone by injection, 4 weeks, vs PBS negative control): much more improved | symptom of atopic dermatitis (naked-eye observation) ([1]; NC/Nga mice, 1% hirsutenone by injection, 4 weeks, vs PBS negative control): much more improved | symptom of atopic dermatitis (naked-eye observation) ([1]; NC/Nga mice, 1% hirsutenone ointment applied to skin, 4 weeks, vs composition without active ingredient): much more remarkably improved | number of eosinophil in blood (eosinophil): more severely reduced | IgE expression level in blood (IgE): remarkably lower | IL-4 expression level (IL-4): much lower | IL-5 expression level (IL-5): much lower | IL-13 expression level (IL-13): much lower | COX-2 expression level (real-time PCR) (COX-2 [2]): significantly decreased | iNOS expression level (real-time PCR) (iNOS [3]): significantly decreased | COX-2 expression level (western blotting) (COX-2 [4]): reduced | iNOS expression level (western blotting) (iNOS [5]): reduced
